For 29 molecules, IC50 results are on record in US20250179083A1, “TRICYCLIC TRIAZOLO COMPOUNDS AS DGK INHIBITORS” (Incyte Corporation, priority 2023, published 2025).

Assay [1] has as its target T1, DGKα (Homo sapiens, UniProt P23743).
T1 construct: His; purchased Signal Chem D21-10BH
Nature of the assay: In vitro DGKα inhibition assay (ADP-Glo). The class given is biochemical. The following applies: His-tagged human recombinant DGKα 0.1 nM, 50 μM ATP, 20 μM DLG, 90 minute incubation. On the procedure: (§1) The DGKα and DGKζ biochemical reactions were performed using His-tagged human recombinant enzymes (Signal Chem, DGKα, #D21-10BH; DGKζ, #D30-10H)) and DLG (Dilauroyl-sn-glycerol) lipid substrate (Signal Chem, #D430-59). ADP-Glo assay was performed using ADP-Glo™ kinase Assay kit (Promega, #V9104). The reactions were carried out in assay buffer containing 40 mM Tris, pH 7.5, 0.1% CHAPS, 0.1% Prionex, 40 mM NaCl, 5 mM MgCl2, 1 mM CaCl2, and 1 mM DTT. DGKα reactions contained 0.1 nM DGKα, 50 μM ATP, and 20 μM DLG. And DGKζ reactions contained 0.4 nM DGKζ, 30 μM ATP, and 20 μM DLG.
(§2) Compounds were added with top concentration of 2 mM with 11 point, 3-fold dilution series. Enzyme solution (contains 2×DGK enzyme concentration in 1× assay buffer) was added to the plate in 2 μL/well volume, followed by 2 μL/well of substrate solution (contains 2× concentration of ATP and DLG substrate in 1× assay buffer). Plates were then centrifuged for 1 min at 1200 RPM and sealed or lidded. For 4 μL reaction volume, test compounds were therefore diluted 100× to final top concentration of 20 μM. After 90 minute incubation, reactions were quenched by addition of 2 μL/well Promega ADP-Glo Reagent, followed by centrifugation and lidding. After 60 min incubation, 2 μL/well Promega Kinase Detection Reagent was added, plates centrifuged, and incubated for 30 min. Plates were then read using Luminescence method on BMG PHERAstar FSX plate reader. Percent inhibition was calculated and IC50s were determined using 4-parameter fit in Genedata Screener. Labcyte Echo acoustic dispenser was used for compound addition, and Formulatrix Tempest liquid handler was used for all reagent dispenses.
(In general: ADP-Glo turns the ADP formed in a reaction into a luminescent signal.)

Assay [2] concerns the target T2, DGKζ (Homo sapiens, UniProt Q13574).
T2 construct: His; purchased Signal Chem D30-10H
The experiment in a line: In vitro DGKζ inhibition assay (ADP-Glo). Type of assay: biochemical. The following applies: His-tagged human recombinant DGKζ 0.4 nM, 30 μM ATP, 20 μM DLG, 90 minute incubation. On the procedure:
as §1, §2

T2 sequence (Q13574 whole entry): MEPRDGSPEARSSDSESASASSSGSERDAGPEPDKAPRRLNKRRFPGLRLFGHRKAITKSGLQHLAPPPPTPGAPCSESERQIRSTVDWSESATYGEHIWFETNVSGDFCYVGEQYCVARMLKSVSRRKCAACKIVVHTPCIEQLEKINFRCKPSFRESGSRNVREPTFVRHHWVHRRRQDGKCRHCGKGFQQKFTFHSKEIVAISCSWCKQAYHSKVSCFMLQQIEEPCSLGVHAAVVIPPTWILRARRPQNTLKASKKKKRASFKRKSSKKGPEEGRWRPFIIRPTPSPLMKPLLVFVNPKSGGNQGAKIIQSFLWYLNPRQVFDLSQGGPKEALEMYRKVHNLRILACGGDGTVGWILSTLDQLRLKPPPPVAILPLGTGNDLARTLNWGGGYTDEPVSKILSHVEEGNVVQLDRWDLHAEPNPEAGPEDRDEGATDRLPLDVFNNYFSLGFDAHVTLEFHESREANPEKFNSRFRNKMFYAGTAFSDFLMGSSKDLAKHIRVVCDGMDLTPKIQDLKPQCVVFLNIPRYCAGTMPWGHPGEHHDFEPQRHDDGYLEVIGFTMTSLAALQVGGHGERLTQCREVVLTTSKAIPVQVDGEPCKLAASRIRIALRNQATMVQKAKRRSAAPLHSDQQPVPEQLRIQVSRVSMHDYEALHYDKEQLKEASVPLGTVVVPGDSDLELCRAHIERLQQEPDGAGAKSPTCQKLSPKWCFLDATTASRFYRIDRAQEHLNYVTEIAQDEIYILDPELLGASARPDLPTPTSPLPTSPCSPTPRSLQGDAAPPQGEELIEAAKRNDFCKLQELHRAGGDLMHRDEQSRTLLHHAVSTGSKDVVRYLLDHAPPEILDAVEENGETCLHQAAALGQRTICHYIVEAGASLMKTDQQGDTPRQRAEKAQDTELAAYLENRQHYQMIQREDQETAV
T1 sequence (P23743 whole entry): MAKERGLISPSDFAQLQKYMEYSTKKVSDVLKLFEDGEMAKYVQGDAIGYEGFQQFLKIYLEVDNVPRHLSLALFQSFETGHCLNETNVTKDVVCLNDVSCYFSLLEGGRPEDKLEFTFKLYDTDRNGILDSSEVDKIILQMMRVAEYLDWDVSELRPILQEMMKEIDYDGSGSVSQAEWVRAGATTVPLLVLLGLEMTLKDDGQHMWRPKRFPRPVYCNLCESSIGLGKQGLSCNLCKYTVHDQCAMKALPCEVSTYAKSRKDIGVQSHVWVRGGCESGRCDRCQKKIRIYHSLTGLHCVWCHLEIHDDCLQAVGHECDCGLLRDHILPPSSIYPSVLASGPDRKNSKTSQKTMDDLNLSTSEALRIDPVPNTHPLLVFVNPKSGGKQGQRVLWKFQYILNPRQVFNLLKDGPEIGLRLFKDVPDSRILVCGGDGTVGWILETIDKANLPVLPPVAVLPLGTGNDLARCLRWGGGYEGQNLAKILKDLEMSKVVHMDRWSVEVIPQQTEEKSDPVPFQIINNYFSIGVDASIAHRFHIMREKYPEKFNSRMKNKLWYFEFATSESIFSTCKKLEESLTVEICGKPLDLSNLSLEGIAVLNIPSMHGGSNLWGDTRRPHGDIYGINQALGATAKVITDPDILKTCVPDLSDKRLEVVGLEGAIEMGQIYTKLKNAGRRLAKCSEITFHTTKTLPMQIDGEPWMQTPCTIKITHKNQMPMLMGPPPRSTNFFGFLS

As a reminder, the IC50 is the midpoint of a concentration-inhibition curve. On to `C[C@@H]1CN(c2nc3nncn3c3c2ncn3C[C@@H]2CCCO2)[C@@H](C)CN1C(c1ccc(C(F)(F)F)cc1)C1CC(F)(F)C1` (single isomer, unassigned) [Example 1], for which the 50% inhibitory concentration (IC50) in assay [1] and in assay [2] was under 0.02 µM throughout.
As to `C[C@@H]1CN(c2nc3nncn3c3c2ncn3C[C@@H]2CCCO2)[C@@H](C)CN1C(c1ccc(Cl)cc1)[C@@H]1CC1(F)F` (single isomer, unassigned) [Example 6], the IC50 in assay [1] and in assay [2] was under 0.02 µM each time.
For the molecule `C[C@@H]1CN(c2nc3nncn3c3c2ncn3C[C@@H]2CCCO2)[C@@H](C)CN1C(c1ccc(Cl)cc1)[C@H]1CC1(F)F` (single isomer, unassigned) [Example 7], the IC50 in assay [1] and in assay [2] was under 0.02 µM each time.
For `Cc1nc2c(N3C[C@@H](C)N(C(c4ccc(Cl)cc4)[C@@H]4CC4(F)F)C[C@@H]3C)nc3nncn3c2n1C[C@@H]1CCCO1` (single isomer, unassigned) [Example 8], the concentration for half-maximal inhibition (IC50) in assay [1] and in assay [2] was under 0.02 µM in each case.
For the molecule `CC(C)CC(c1ccc(Cl)cc1)N1C[C@H](C)N(c2nc3nncn3c3c2ncn3C[C@@H]2CCCO2)C[C@H]1C` (single isomer, unassigned) [Example 9], the IC50 in assay [1] and in assay [2] was under 0.02 µM in each case.
For `C[C@@H]1CN(c2nc3nncn3c3c2ncn3C[C@@H]2CCCO2)[C@@H](C)CN1C(C[C@@H](C)C(F)(F)F)c1ccc(Cl)cc1` (single isomer, unassigned) [Example 11], the IC50 in assay [1] and in assay [2] was under 0.02 µM throughout.
As for `CC(CC(c1ccc(Cl)cc1)N1C[C@H](C)N(c2nc3nncn3c3c2ncn3C[C@@H]2CCCO2)C[C@H]1C)C(F)(F)F` (single isomer, unassigned) [Example 12], the IC50 in assay [1] and in assay [2] was under 0.02 µM throughout.
Turning to `C[C@@H]1CN(c2nc3nncn3c3c2ncn3C[C@@H]2CCCO2)[C@@H](C)CN1C(c1ccc(C(F)(F)F)cc1)[C@@H]1CC1(F)F` (single isomer, unassigned) [Example 13], the IC50 in assay [1] and in assay [2] was under 0.02 µM throughout.
`CC(C)CC(c1ccc(C(F)(F)F)cc1)N1C[C@H](C)N(c2nc3nncn3c3c2ncn3C[C@@H]2CCCO2)C[C@H]1C` (single isomer, unassigned) [Example 14]: the IC50 in assay [1] and in assay [2] was under 0.02 µM in each case.
Take `CC(C)CC(c1ccc(Cl)c(F)c1)N1C[C@H](C)N(c2nc3nncn3c3c2ncn3C[C@@H]2CCCO2)C[C@H]1C` (single isomer, unassigned) [Example 15]: the IC50 in assay [1] and in assay [2] was under 0.02 µM each time.
With `C[C@@H]1CN(c2nc3nncn3c3c2ncn3C[C@@H]2CCCO2)[C@@H](C)CN1C(C[C@@H](C)C(F)(F)F)c1ccc(Cl)c(F)c1` (single isomer, unassigned) [Example 16], the IC50 in assay [1] and in assay [2] was under 0.02 µM in each case.
As to `CC(CC(c1ccc(Cl)c(F)c1)N1C[C@H](C)N(c2nc3nncn3c3c2ncn3C[C@@H]2CCCO2)C[C@H]1C)C(F)(F)F` (single isomer, unassigned) [Example 17], the IC50 in assay [1] and in assay [2] was under 0.02 µM each time.
Regarding `Cc1nc2c(N3C[C@@H](C)N(C(CC(C)C)c4ccc(Cl)c(F)c4)C[C@@H]3C)nc3nncn3c2n1C[C@@H]1CCCO1` (single isomer, unassigned) [Example 18], the IC50 in assay [1] and in assay [2] was under 0.02 µM each time.
In the case of `C[C@@H]1CN(c2nc3nncn3c3c2ncn3C[C@@H]2CCCO2)[C@@H](C)CN1[C@@H](c1ccc(Cl)cc1)c1ccc(Cl)cn1` (single isomer, unassigned) [Example 21], the half-maximal inhibitory concentration (IC50) in assay [1] and in assay [2] was under 0.02 µM each time.
Take `C[C@@H]1CN(c2nc3nncn3c3c2ncn3C[C@@H]2CCCO2)[C@@H](C)CN1[C@H](c1ccc(Cl)cc1)c1ccc(Cl)cn1` (single isomer, unassigned) [Example 22]: the IC50 in assay [1] and in assay [2] was under 0.02 µM in each case.
In the case of `Cc1nc2c(N3C[C@@H](C)N(C(c4ccc(Cl)c(F)c4)C(C)C)C[C@@H]3C)nc3nncn3c2n1C[C@@H]1CCCO1` (single isomer, unassigned) [Example 23], the IC50 in assay [1] and in assay [2] was under 0.02 µM each time.
Regarding `Cc1nc2c(N3C[C@@H](C)N(C(c4ccc(C(F)(F)F)cc4)C4CC(F)(F)C4)C[C@@H]3C)cc3nncn3c2n1C[C@@H]1CCCO1` (single isomer, unassigned) [Example 49], the IC50 in assay [1] and in assay [2] was under 0.02 µM each time.
On to `C[C@@H]1CN(c2cc3nncn3c3c2ncn3C[C@@H]2CCCO2)[C@@H](C)CN1C(c1ccc(Cl)cc1)[C@@H]1CC1(F)F` (single isomer, unassigned) [Example 50], for which the IC50 is under 0.02 µM in assay [1] and 0.02 to 0.2 µM in assay [2].
Consider `CC(C)CC(c1ccc(Cl)cc1)N1C[C@H](C)N(c2cc3nncn3c3c2ncn3C[C@@H]2CCCO2)C[C@H]1C` (single isomer, unassigned) [Example 51], for which the IC50 in assay [1] and in assay [2] was under 0.02 µM throughout.
Consider `CC[C@@H]1CN(c2cc3nncn3c3c2nc(C)n3C[C@@H]2CCCO2)[C@@H](C)CN1C(c1ccc(Cl)cc1)C1CC(F)(F)C1` (single isomer, unassigned) [Example 52], for which the IC50 in assay [1] and in assay [2] was under 0.02 µM throughout.
Regarding `Cc1nc2c(N3C[C@@H](C)N(C(CC(C)C)c4ccc(Cl)cc4)C[C@@H]3C)nc3nncn3c2n1C[C@@H]1CCCO1` (single isomer, unassigned) [Example 53], the half-inhibitory concentration (IC50) in assay [1] and in assay [2] was under 0.02 µM in each case.
In the case of `Cc1nc2c(N3C[C@@H](C)N([C@H](c4ccc(Cl)cc4)[C@H]4CC4(F)F)C[C@@H]3C)nc3nncn3c2n1C[C@@H]1CCCO1` (single isomer, unassigned) [Example 55], the IC50 in assay [1] and in assay [2] was under 0.02 µM throughout.
Turning to `Cc1nc2c(N3C[C@@H](C)N([C@@H](c4ccc(Cl)cc4)[C@H]4CC4(F)F)C[C@@H]3C)nc3nncn3c2n1C[C@@H]1CCCO1` (single isomer, unassigned) [Example 56], the IC50 in assay [1] and in assay [2] was under 0.02 µM each time.
Take `C[C@@H]1CN(c2cc3nncn3c3c2ncn3C[C@@H]2CCCO2)[C@@H](C)CN1C(c1ccc(Cl)cc1)C1CC(F)(F)C1` (single isomer, unassigned) [Example 61]: the IC50 in assay [1] and in assay [2] was under 0.02 µM throughout.
For `Cc1nc2c(N3C[C@@H](C)N(C(c4ccc(Cl)cc4)C4CC(F)(F)C4)C[C@@H]3C)cc3nncn3c2n1C[C@@H]1CCCO1` (single isomer, unassigned) [Example 62], the 50% inhibitory concentration (IC50) in assay [1] and in assay [2] was under 0.02 µM throughout.
As for `C[C@@H]1CN(c2nc3nncn3c3c2ncn3C[C@@H]2CCCO2)[C@@H](C)CN1C(c1ccc(C(F)F)c(F)c1)C1CC(F)(F)C1` (stereo partly drawn) [Example 2, 4-((2S,5R)-4-((3,3-Difluorocyclobutyl)(4-(difluoromethyl)-3-fluorophenyl)methyl)-2,5-dimethylpiperazin-1-yl)-1-(((S)-tetrahydrofuran-2-yl)methyl)-1H-[1,2,4]triazolo[3,4-b]purine], the IC50 in assay [1] and in assay [2] was under 0.02 µM each time.
As to `Cc1nc2c(N3C[C@@H](C)N(C(c4ccc(C(F)F)cc4F)C4CC(F)(F)C4)C[C@@H]3C)nc3nncn3c2n1C[C@@H]1CCCO1` (stereo partly drawn) [Example 3, 4-((2S,5R)-4-((3,3-Difluorocyclobutyl)(4-(difluoromethyl)-2-fluorophenyl)methyl)-2,5-dimethylpiperazin-1-yl)-2-methyl-1-(((S)-tetrahydrofuran-2-yl)methyl)-1H-[1,2,4]triazolo[3,4-b]purine], the IC50 in assay [1] and in assay [2] was under 0.02 µM each time.
Regarding `Cc1nc2c(N3C[C@@H](C)N(C(c4ccc(C(F)(F)F)cc4F)C4CC(F)(F)C4)C[C@@H]3C)nc3nncn3c2n1C[C@@H]1CCCO1` (stereo partly drawn) [Example 4, 4-((2S,5R)-4-((3,3-Difluorocyclobutyl)(2-fluoro-4-(trifluoromethyl)phenyl)methyl)-2,5-dimethylpiperazin-1-yl)-2-methyl-1-(((S)-tetrahydrofuran-2-yl)methyl)-1H-[1,2,4]triazolo[3,4-b]purine], the IC50 in assay [1] and in assay [2] was under 0.02 µM throughout.
Take `Cc1nc2c(N3C[C@@H](C)N(C(c4ccc(Cl)cc4F)C4CC(F)(F)C4)C[C@@H]3C)nc3nncn3c2n1C[C@@H]1CCCO1` (stereo partly drawn) [Example 5, 4-((2S,5R)-4-((4-Chloro-2-fluorophenyl)(3,3-difluorocyclobutyl)methyl)-2,5-dimethylpiperazin-1-yl)-2-methyl-1-(((S)-tetrahydrofuran-2-yl)methyl)-1H-[1,2,4]triazolo[3,4-b]purine]: the IC50 in assay [1] and in assay [2] was under 0.02 µM in each case.
